Reference: US8563723B2, “Arylsulfonyl pyrazoline carboxamidine derivatives as 5-HT6 antagonists” (Abbott Healthcare Products, B.V., priority 2008, dated 2013)
Where two headings read alike, the source gives them in different places.

Tests used:
[1] = target: T1, 5-HT6 receptor (Homo sapiens, UniProt P50406); assay: In vitro functional activity ((ant)agonism) on human 5-HT6 receptors, CHO-human-5HT6-Aequorin assay; type: cell-based; parameters: host or cells: CHO AequoScreen recombinant cell line (expresses mitochondrial targeted apo-Aequorin)
T1 sequence (P50406 whole entry): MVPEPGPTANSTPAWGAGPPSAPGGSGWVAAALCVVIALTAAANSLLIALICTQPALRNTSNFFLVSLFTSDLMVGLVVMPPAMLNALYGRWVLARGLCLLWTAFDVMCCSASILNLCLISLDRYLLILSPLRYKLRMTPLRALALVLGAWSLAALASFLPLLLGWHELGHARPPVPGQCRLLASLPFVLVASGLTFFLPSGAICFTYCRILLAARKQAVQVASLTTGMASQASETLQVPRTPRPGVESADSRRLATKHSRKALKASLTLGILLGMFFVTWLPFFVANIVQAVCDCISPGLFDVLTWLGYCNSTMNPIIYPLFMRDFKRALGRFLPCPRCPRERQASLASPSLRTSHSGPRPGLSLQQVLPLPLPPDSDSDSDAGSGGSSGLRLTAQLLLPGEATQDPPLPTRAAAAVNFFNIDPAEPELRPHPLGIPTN

[2] = target: T1, 5-HT6 receptor; assay: In vitro affinity for human 5-HT6 receptors ([3H]-LSD binding, CHO cell membranes); parameters: host or cells: CHO/Gα16/mtAEQ/h5HT6-A1 cells; conditions: read-out: 5-HT6 pKi (converted)
[3] = in vitro; conditions: rat, hepatocytes
[4] = in vitro; conditions: human, hepatocytes
[5] = antagonism of 10^-8 M α-methylserotonin induced luminescence, main compound table, read-out: 5-HT6 pA2 (converted)
[6] = [3H]-LSD, membranes of CHO cells with human 5-HT6, main compound table
[7] = antagonism of 10^-8 M α-methylserotonin induced luminescence, main compound table
[8] = [3H]-LSD, membranes of CHO cells with human 5-HT6, comparison table Example 6
[9] = antagonism of 10^-8 M α-methylserotonin induced luminescence, comparison table Example 6

Structure (SMILES) | Kb [1, 5] | Ki [2, 6] | further results
CCN/C(=N\S(=O)(=O)c1ccc(N)cc1)N1CC(CC)C=N1 (single isomer, unassigned) [Compound 1] | 2 nM | 3.16 nM | –
CCN/C(=N\S(=O)(=O)c1ccc(N)cc1)N1CC(CC)C=N1 (single isomer, unassigned) [Compound 2] | – | 10 nM | –
CCN/C(=N\S(=O)(=O)c1ccc(N)c(Cl)c1)N1CC(CC)C=N1 (single isomer, unassigned) [Compound 11] | 0.501 nM | 1 nM | –
CCN/C(=N\S(=O)(=O)c1ccc(N)c(Cl)c1)N1CC(CC)C=N1 (single isomer, unassigned) [Compound 12] | 1 nM | 1.58 nM | –
CCN/C(=N\S(=O)(=O)c1ccc(O)cc1)N1CC(CC)C=N1 (single isomer, unassigned) [Compound 20] | 1 nM | 2 nM | –
CCN/C(=N\S(=O)(=O)c1ccc(O)cc1)N1CC(CC)C=N1 (single isomer, unassigned) [Compound 21] | 6.31 nM | 10 nM | –
CCN/C(=N\S(=O)(=O)c1ccc(N)cc1)N1CC(C)(C)C=N1 [Compound 3, 4-Amino-N-[(4,4-dimethyl-4,5-dihydro-pyrazol-1-yl)-ethylamino-methylene]-benzenesulfonamide] | – | 12.6 nM | 5-HT6 pA2 [1, 7]: 7.6; Ki [2, 8]: 12.6 nM; half-life at 1 μg/ml [3]: 1.18 h; half-life at 1 μg/ml [4]: > 16.7 h
CCN/C(=N\S(=O)(=O)c1ccc(N)cc1)N1CC2(C=N1)CCCC2 [Compound 4, 4-Amino-N-[(2,3-diaza-spiro[4.4]non-3-en-2-yl)-ethylamino-methylene]benzene-sulfonamide] | – | 10 nM | Kb ([1]; 5-HT6 pA2, antagonism of 10^-8 M α-methylserotonin induced luminescence, main compound table): 5.01 nM; melting point: 141 to 142 °C
N/C(=N\S(=O)(=O)c1ccc(N)cc1)N1CC2(C=N1)CCCC2 [Compound 5] | 79.4 nM | 100 nM | –
CCN/C(=N\S(=O)(=O)c1ccc(N)cc1)N1CC2(C=N1)CCOCC2 [Compound 7] | 25.1 nM | 63.1 nM | –
CN/C(=N\S(=O)(=O)c1ccc(N)cc1)N1CC2(C=N1)CCOCC2 [Compound 8] | 158 nM | 200 nM | –
N/C(=N\S(=O)(=O)c1ccc(N)cc1)N1CC2(C=N1)CCOCC2 [Compound 9] | 200 nM | 251 nM | –
CCN/C(=N\S(=O)(=O)c1ccc2c(c1)CCN2)N1CC(CC)C=N1 (stereo not drawn) [Compound 16, 2,3-Dihydro-1H-indole-5-sulfonic acid ethylamino-(4-ethyl-4,5-dihydro-pyrazol-1-yl)-methyleneamide] | 10 nM | 12.6 nM | –
CCN/C(=N\S(=O)(=O)c1ccc2[nH]ccc2c1)N1CC(CC)C=N1 (stereo not drawn) [Compound 18, 1H-Indole-5-sulfonic acid ethylamino-(4-ethyl-4,5-dihydro-pyrazol-1-yl)-methyleneamide] | – | 3.98 nM | –
CCN/C(=N\S(=O)(=O)c1ccc(O)cc1)N1CC2(C=N1)CCCCC2 [Compound 24] | – | – | melting point: 140 to 142 °C
CCN/C(=N\S(=O)(=O)c1ccc(O)cc1)N1N=CCC1c1ccccc1 (stereo not drawn) [Compound 25, N-[Ethylamino-(5-phenyl-4,5-dihydro-pyrazol-1-yl)-methylene]-4-hydroxybenzene-sulfonamide] | – | – | melting point: 158 to 160 °C
CCN/C(=N\S(=O)(=O)c1ccc(O)c(Cl)c1)N1CC(CC)C=N1 (stereo not drawn) [Compound 26, 3-Chloro-N-[ethylamino-(4-ethyl-4,5-dihydro-pyrazol-1-yl)-methylene]-4-hydroxy-benzenesulfonamide] | – | 10 nM | –
CCN/C(=N\S(=O)(=O)c1ccc(O)c(Cl)c1)N1CC(C)(C)C=N1 [Compound 27] | 25.1 nM | 15.8 nM | –
CCN/C(=N\S(=O)(=O)c1cccc(Cl)c1)N1CC(C)(C)C=N1 [Compound 33 from WO 2008/034863, reference compound] | – | – | 5-HT6 pA2 [1, 9]: 7.8; Ki [2]: 25.1 nM
CCN/C(=N\S(=O)(=O)c1ccc(C(N)=O)cc1)N1CC(CC)C=N1 (stereo not drawn) [Compound 43, 4-{[Ethylamino-(4-ethyl-4,5-dihydro-pyrazol-1-yl)-methylene]-sulfamoyl}-benzamide] | – | – | melting point: 146 to 149 °C
CCN/C(=N\S(=O)(=O)c1cccc(C(N)=O)c1)N1CC(CC)C=N1 (stereo not drawn) [Compound 44, 3-{[Ethylamino-(4-ethyl-4,5-dihydro-pyrazol-1-yl)-methylene]-sulfamoyl}-benzamide] | – | – | melting point: 164 to 168 °C
CCN/C(=N\S(=O)(=O)c1ccc(N)cc1)N1CC2(C=N1)CCNCC2 [Compound 47, 4-Amino-N-[ethylamino-(2,3,8-triaza-spiro[4.5]dec-3-en-2-yl)-methylene]-benzenesulfonamide] | – | – | 5-HT6 pA2 [1, 7]: 8.6
CCN/C(=N\S(=O)(=O)c1cccc(Cl)c1)N1CC2(C=N1)CCCC2 [Compound 49 from WO 2008/034863, reference compound] | – | – | 5-HT6 pA2 [1, 9]: 8.2; Ki [2, 8]: 5.01 nM
CCN/C(=N\S(=O)(=O)c1ccc2[nH]ccc2c1)N1CC2(C=N1)CCNCC2 [Compound 49] | – | – | 5-HT6 pA2 [1, 7]: 8.8
CCN/C(=N\S(=O)(=O)c1cc(O)cc(Cl)c1)N1CC2(C=N1)CCCC2 [Compound 54] | – | – | melting point: 157 to 158 °C

Continued, in another order:

Kb [1, 5] | Ki [2, 6] | Structure (SMILES) | further results
100 nM | 63.1 nM | CCN/C(=N\S(=O)(=O)c1cccc(N)c1)N1CC(CC)C=N1 (stereo not drawn) [Compound 29] | –
126 nM | 251 nM | CCN/C(=N\S(=O)(=O)c1cccc(N)c1)N1CC(C)(C)C=N1 [Compound 30, 3-Amino-N-[(4,4-dimethyl-4,5-dihydro-pyrazol-1-yl)-ethylamino-methylene]-benzenesulfonamide] | –
– | 501 nM | CCN/C(=N\S(=O)(=O)c1ccc2c(c1)NCC2)N1CC(CC)C=N1 (stereo not drawn) [Compound 33, 2,3-Dihydro-1H-indole-6-sulfonic acid ethylamino-(4-ethyl-4,5-dihydro-pyrazol-1-yl)-methyleneamide] | –
31.6 nM | 50.1 nM | CCN/C(=N\S(=O)(=O)c1cccc(O)c1)N1CC(C)(C)C=N1 [Compound 36, N-[(4,4-Dimethyl-4,5-dihydro-pyrazol-1-yl)-ethylamino-methylene]-3-hydroxy-benzenesulfonamide] | –
– | 631 nM | CCN/C(=N\S(=O)(=O)c1ccc(CO)cc1)N1CC2(C=N1)CCCC2 [Compound 40, N-[(2,3-Diaza-spiro[4.4]non-3-en-2-yl)-ethylamino-methylene]-4-hydroxymethyl-benzenesulfonamide] | –
– | 12.6 nM | CCN/C(=N\S(=O)(=O)c1ccc(O)cc1)N1CC2(C=N1)CCNCC2 [Compound 50] | –
– | 7.94 nM | CCN/C(=N\S(=O)(=O)c1cc(O)cc(Cl)c1)N1CC2(C=N1)CCNCC2 [Compound 52] | melting point: 112 to 114 °C
– | 5.01 nM | CCN/C(=N\S(=O)(=O)c1cc(O)cc(Cl)c1)N1CC(CC)C=N1 (stereo not drawn) [Compound 53] | melting point: 146 to 147 °C
0.2 nM | – | CCN/C(=N\S(=O)(=O)c1cc(O)cc(Cl)c1)N1CC2(C=N1)CCCCC2 [Compound 55] | –
– | 15.8 nM | CCN/C(=N\S(=O)(=O)c1ccc2c(c1)CCN2)N1CC(C)(C)C=N1 [Compound 56] | –
2.51 nM | 7.94 nM | CCN/C(=N\S(=O)(=O)c1ccc2[nH]ccc2c1)N1CC(C)(C)C=N1 [Compound 57] | –
– | 7.94 nM | CCN/C(=N\S(=O)(=O)c1ccc2c(c1)CCN2)N1CC2(C=N1)CCCCC2 [Compound 59] | –
– | 3.16 nM | CCN/C(=N\S(=O)(=O)c1ccc2[nH]ccc2c1)N1CC2(C=N1)CCCCC2 [Compound 60] | –
